Test results reported in patent US6653338B2 (Applied Research Systems ARS Holding N.A., priority 1998, dated 2003).

Key:
[1] = biological target: T1, recombinant FSH receptor stably transfected and expressed in Chinese Hamster Ovary cells (Homo sapiens, UniProt P23945); test: FSH assay: CHO luciferase FSHR (CRE-luciferase reporter, LDR curves); assay type: cell-based; conditions: FIG. 6, from the graph; duplicate samples; luciferase luminescence in CHO FSHR cells
T1 construct: expressed in transfected cells; host or cells: Chinese Hamster Ovary (CHO) cells, stably transfected, with CRE-luciferase reporter
T1 sequence (P23945 18-695): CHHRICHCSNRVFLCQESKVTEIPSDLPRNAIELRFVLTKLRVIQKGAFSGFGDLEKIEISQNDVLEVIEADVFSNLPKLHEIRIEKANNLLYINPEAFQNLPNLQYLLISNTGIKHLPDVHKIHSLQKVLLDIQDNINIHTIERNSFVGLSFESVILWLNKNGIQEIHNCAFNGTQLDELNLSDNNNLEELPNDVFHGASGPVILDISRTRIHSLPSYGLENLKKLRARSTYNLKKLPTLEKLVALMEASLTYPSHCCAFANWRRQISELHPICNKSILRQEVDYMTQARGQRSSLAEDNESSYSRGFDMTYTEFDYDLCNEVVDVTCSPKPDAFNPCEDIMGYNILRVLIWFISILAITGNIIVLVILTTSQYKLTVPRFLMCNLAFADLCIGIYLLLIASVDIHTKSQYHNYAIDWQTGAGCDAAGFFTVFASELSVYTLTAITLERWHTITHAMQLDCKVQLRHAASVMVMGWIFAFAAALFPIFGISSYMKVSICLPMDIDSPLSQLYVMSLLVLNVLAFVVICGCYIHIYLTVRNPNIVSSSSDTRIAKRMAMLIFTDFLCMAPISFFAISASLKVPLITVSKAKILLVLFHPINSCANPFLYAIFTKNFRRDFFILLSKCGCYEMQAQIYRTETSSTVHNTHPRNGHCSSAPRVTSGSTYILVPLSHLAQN
Source text: Compounds were screened for agonist activity at the FSH receptor using the recombinant FSH receptor stably transfected and expressed in Chinese Hamster Ovary cells (CHO cells) essentially as described in the work by Kelton, et al. (Molecular and Cellular Endocrinology, 1992, 89, 141-151). […] An agonist at the FSH receptor increases cAMP in the cell, which results in activation of CREB (cAMP response element binding protein). This molecule interacts with the CRE element upstream of the gene and results in increased transcription of the genes downstream of the element. The substrate for luciferase (Packard Instrument Company, Meriden, Conn., U.S.A.) was added to the cells after appropriate incubation with the compounds of the invention or FSH (used as a positive control). The amount of luciferase expressed was measured by quantitating the luminescence produced by the enzyme using a TopCount scintillation/luminescence counter running in single photon counting mode. A compound that acts as an agonist at the receptor should produce light from the treated cells in proportion to its concentration within the incubation. Luminescence should be saturable at high concentrations of the compound.
The compounds of the invention, in deepwell plates (Master plates) were loaded on the robotic deck along with the appropriate number of assay plates and daughter plates. A 10 μl aliquot from each master plate was transferred to the corresponding daughter plate and 90 μl of DME/F12 was added and mixed within each well. 20 μl was then removed from the daughter plate and dispensed into the assay plate. […] 100 μl of Luclite (prepared as described by the manufacturer) was added to each well and the plate was shaken gently for 40 s prior to placement in the Topcount plate reader. After allowing 3.5 min for the plate to dark-adapt within the machine, the amount of luminescence generated was quantitated using Single Photon Counting mode. […]

[2] = test system: primary rat granulosa cells; test: primary rat granulosa cell bioassay (estradiol production by RIA); assay type: cell-based; conditions: FIG. 7; for estradiol production versus dose: concentrations between 200 nM and 5 μM, decrease in production above this concentration; for EC50: Rattus norvegicus, estradiol in cell supernatants by RIA, read-out: EC50 of stimulated estradiol production
Experimental: In this in vitro assay, conversion of androstendione to estrogen by granulosa cells in the presence of FSH was measured for compounds XVI and XVII. For comparison, FSH was also tested in the assay.
Cells were plated at 5000, 8000, 10,000 and 20,000 cells/ well/ 200 μl of GAB medium on poly-D-lysine-coated 96-well tissue culture plates. Plates were incubated at 37° C. in a 5% CO2/95% air incubator for 3 days. Cultures were washed prior to stimulation with FSH or LH. 50 μl of 4 X concentrations of rhFSH, rhLH or forskolin was added to the cultures. To define the range of the dose response curve the rhFSH was diluted so that the final concentration on the cells was between 10^−7 to 10^−15 M with three doses per log at 1, 2 and 5. Forskolin was diluted so that the final concentration on the cells was 1 μM. Cells were incubated @ 37° C. in 5% CO2. Three days later, cell supernatants were collected and diluted 1:100 in GAB medium for measurement of estradiol by RIA. The RIA was performed according to manufacturer's directions except that an estradiol standard was prepared in absolute ethanol at 100 ng/mL and then further diluted in GAB medium, instead of kit buffer. The concentration of hormone was plotted on the X-axis against the amount of estradiol produced by the cells on the Y-axis using Origin graphics software.
Results of the assay using media only are also shown.

| Structure (SMILES) | EC50 [1] [nM] | estradiol production versus dose [2] | EC50 [2] [nM] |
| --- | --- | --- | --- |
| CCCCCc1ccc(C(=O)N2CC(O)CC2C(=O)Nc2ccc3c(c2)c2ccccc2n3CC)c(=O)o1 (stereo not shown) [compound XIX, 1-[(2-Oxo-6-pentyl-2H-pyran)-3-carbonyl]-4-hydroxypyrrolidine2-carboxylic acid-3-(9-ethylcarbazolyl)amide] | 1120 |  |  |
| CCCCCc1ccc(C(=O)N2CCCC2C(=O)Nc2ccc3c(c2)c2ccccc2n3CC)c(=O)o1 (stereo not shown) [compound XVI, 1-[(2-Oxo-6-pentyl-2H-pyran)-3-carbonyl]pyrrolidine-2-carboxylic acid-3-(9-ethylcarbazolyl)amide] | 38.8 | increasing estradiol production with increasing dose | 1400 |
| CCCCCc1ccc(C(=O)N2CCCCC2C(=O)Nc2ccc3c(c2)c2ccccc2n3CC)c(=O)o1 (stereo not shown) [compound XVII, 1-[(2-Oxo-6-pentyl-2H-pyran)-3-carbonyl]piperidine-2-carboxylic acid-3-(9-ethylcarbazolyl)amide] | 3.9 | increasing estradiol production with increasing dose | 1200 |
